# Values of other authors as cited in publication PMC8448162, “Single- and Multiple-Ascending-Dose Study of the Safety, Tolerability, and Pharmacokinetics of the Polymyxin Derivative SPR206” (Antimicrobial Agents and Chemotherapy, 2021).
# Positions of bridges follow the written chain, without caps; N, C: chain ends. Non-standard residues stand in square brackets, D forms with d. Residues, ends and D or L forms follow the SMILES beside them. *: point of attachment. X1 = NC[C@@H](CC(=O)*)c1cccc(Cl)c1; Dab = NCC[C@H](N)C(=O)O; Dap = NC[C@H](N)C(=O)O
# How the values were obtained:
# [1] = in vivo; cited from earlier work
# [2] = human; cited from earlier work
compound,measurement,setting,value
CC(C)C[C@@H]1NC(=O)[C@@H](Cc2ccccc2)NC(=O)[C@H](CCN)NC(=O)[C@@H](NC(=O)[C@H](CN)NC(=O)[C@@H](NC(=O)C[C@H](CN)c2cccc(Cl)c2)[C@@H](C)O)CCNC(=O)[C@H]([C@@H](C)O)NC(=O)[C@H](CCN)NC(=O)[C@H](CCN)NC1=O [SPR206] (X1-T[Dap][Dab][Dab][dF]L[Dab][Dab]T; lactam 3-C (inferred)),accumulation after repeat dosing,[1],no apparent accumulation
same,protein binding,[2],< 21%
